Experimental data as given in BigSolDB 2.1.

CC1=NNC(=O)N(/N=C/c2cccnc2)C1
solubility (mole fraction)
Conditions	278.15 K	283.15 K	288.15 K	293.15 K	298.15 K	303.15 K	308.15 K	313.15 K	318.15 K
in 1,4-dioxane	–	–	0.000462	0.00054	0.000629	0.000728	0.000842	0.000964	0.0011
in DMF	0.0031	0.00347	0.00398	0.00451	0.00515	0.00582	0.00656	0.00738	0.00832
in DMSO	–	–	–	0.00762	0.00862	0.00985	0.0112	0.0126	0.0144
in NMP	0.00163	0.00189	0.0022	0.00255	0.00295	0.00338	0.00389	0.00444	0.00506
in isopropanol	0.000198	0.000232	0.00028	0.000331	0.000391	0.000461	0.00054	0.000625	0.000729
in n-butanol	0.000159	0.00019	0.000229	0.000277	0.000332	0.000389	0.00046	0.000537	0.000635
